Columns and labels:
Format in all cases: functional
Rattus norvegicus [1] = organism: Rattus norvegicus; experiment: Compound was tested for the selective increase in basal stimulated AcCh release in hippocampus at 100 uM
Rattus norvegicus [2] = organism: Rattus norvegicus; experiment: Compound was tested for the selective increase in K+ stimulated AcCh release in hippocampus at 100 uM
Rattus norvegicus [3] = organism: Rattus norvegicus; experiment: Compound was tested for the selective increase in K+ stimulated AcCh release in cortex at 100 uM
Rattus norvegicus [4] = organism: Rattus norvegicus; experiment: Compound was tested for the selective increase in K+ stimulated AcCh release in striatum; set-up: concentration or dose not given beside the values
Rattus norvegicus [5] = organism: Rattus norvegicus; experiment: Compound was tested for the selective increase in basal stimulated AcCh release in cortex at 100 uM
Rattus norvegicus [6] = organism: Rattus norvegicus; experiment: Compound was tested for the selective increase in basal stimulated AcCh release in striatum; set-up: concentration or dose not given beside the values
Mus musculus = organism: Mus musculus; experiment: Compound was tested for the minimum effective dose required for the inhibition of cholinesterase in mouse water maze; conditions: read-out: MED
Rattus norvegicus [7] = organism: Rattus norvegicus; experiment: Compound was tested for the selective increase in basal stimulated AcCh release in cortex at 10 uM concentration
Rattus norvegicus [8] = organism: Rattus norvegicus; experiment: Compound was tested for the selective increase in K+ stimulated AcCh release in striatum 50 uM concentration
Rattus norvegicus [9] = organism: Rattus norvegicus; experiment: Compound was tested for the selective increase in basal stimulated AcCh release in cortex at 100 uM concentration
Rattus norvegicus [10] = organism: Rattus norvegicus; experiment: Compound was tested for the selective increase in K+ stimulated AcCh release in striatum 1 uM concentration
Rattus norvegicus [11] = organism: Rattus norvegicus; experiment: Compound was tested for the selective increase in basal stimulated AcCh release in brain region of hippocampus at 50 uM concentration
Rattus norvegicus [12] = organism: Rattus norvegicus; experiment: Compound was tested for the selective increase in K+ stimulated AcCh release in striatum 10 uM concentration
Rattus norvegicus [13] = organism: Rattus norvegicus; experiment: Compound was tested for the selective increase in K+ stimulated AcCh release in cortex at 10 uM concentration
Rattus norvegicus [14] = organism: Rattus norvegicus; experiment: Compound was tested for the selective increase in basal stimulated AcCh release in striatum at 50 uM concentration
Rattus norvegicus [15] = organism: Rattus norvegicus; experiment: Compound was tested for the selective increase in K+ stimulated AcCh release in brain region of hippocampus at 1 uM concentration
Rattus norvegicus [16] = organism: Rattus norvegicus; experiment: Compound was tested for the selective increase in K+ stimulated AcCh release in cortex at 50 uM concentration
Rattus norvegicus [17] = organism: Rattus norvegicus; experiment: Compound was tested for the selective increase in basal stimulated AcCh release in brain region of hippocampus at 100 uM concentration
Rattus norvegicus [18] = organism: Rattus norvegicus; experiment: Compound was tested for the selective increase in K+ stimulated AcCh release in cortex at 100 uM concentration
Rattus norvegicus [19] = organism: Rattus norvegicus; experiment: Compound was tested for the selective increase in basal stimulated AcCh release in cortex at 50 uM concentration
Rattus norvegicus [20] = organism: Rattus norvegicus; experiment: Compound was tested for the selective increase in basal stimulated AcCh release in cortex at 1 uM concentration
Rattus norvegicus [21] = organism: Rattus norvegicus; experiment: Compound was tested for the selective increase in basal stimulated AcCh release in striatum at 100 uM concentration
Rattus norvegicus [22] = organism: Rattus norvegicus; experiment: Compound was tested for the selective increase in K+ stimulated AcCh release in brain region of hippocampus at 10 uM concentration
Rattus norvegicus [23] = organism: Rattus norvegicus; experiment: Compound was tested for the selective increase in basal stimulated AcCh release in striatum at 10 uM concentration
Rattus norvegicus [24] = organism: Rattus norvegicus; experiment: Compound was tested for the selective increase in basal stimulated AcCh release in striatum at 1 uM concentration
Rattus norvegicus [25] = organism: Rattus norvegicus; experiment: Compound was tested for the selective increase in K+ stimulated AcCh release in brain region of hippocampus at 100 uM concentration
Rattus norvegicus [26] = organism: Rattus norvegicus; experiment: Compound was tested for the selective increase in basal stimulated AcCh release in brain region of hippocampus at 1 uM concentration
Rattus norvegicus [27] = organism: Rattus norvegicus; experiment: Compound was tested for the selective increase in basal stimulated AcCh release in brain region of hippocampus at 10 uM concentration
Rattus norvegicus [28] = organism: Rattus norvegicus; experiment: Compound was tested for the selective increase in K+ stimulated AcCh release in brain region of hippocampus at 50 uM concentration
Rattus norvegicus [29] = organism: Rattus norvegicus; experiment: Compound was tested for the selective increase in K+ stimulated AcCh release in striatum 100 uM concentration
Rattus norvegicus [30] = organism: Rattus norvegicus; experiment: Compound was tested for the selective increase in K+ stimulated AcCh release in cortex at 1 uM concentration

For O=C(N(c1ccncc1)c1ccc(Cl)c(Cl)c1)N(C1CCCCC1)C1CCCCC1, the “AcCh release (% of control)” value (Rattus norvegicus [1]) was 335.2% and the Control (Rattus norvegicus [2]) was 233.2%.

For O=C(N(c1ccccc1)c1ccccc1)N(c1ccccc1)c1ccncc1, the “AcCh release (% of control)” value (Rattus norvegicus [1]) was 95.4%, the Control (Rattus norvegicus [3]) was 100% and the Control (Rattus norvegicus [2]) was 129.8%. It also gave a Control (Rattus norvegicus [4]) of 206.5%, a Control (Rattus norvegicus [5]) of 95.2% and a Control (Rattus norvegicus [6]) of 279.8%.

In the case of O=C(N(c1ccccc1)c1ccccc1)N(c1ccccc1)c1ccccn1, the “AcCh release (% of control)” value (Rattus norvegicus [1]) is reported as 113.5%, the Control (Rattus norvegicus [3]) is reported as 158.8% and the Control (Rattus norvegicus [2]) is reported as 318.3%. It also gave a Control (Rattus norvegicus [4]) of 266.6%, a Control (Rattus norvegicus [5]) of 130% and a Control (Rattus norvegicus [6]) of 232.1%.

In the case of O=C(N(c1ccccc1)c1ccccc1)N(c1ccncc1)c1ccc(Cl)c(Cl)c1, the “AcCh release (% of control)” value (Rattus norvegicus [1]) is reported as 124.9%, the Control (Rattus norvegicus [2]) is reported as 46.6% and the minimal effective dose (Mus musculus) is reported as 32 mg/kg.

Nc1ccncc1N [AMIFAMPRIDINE] gave a Control (Rattus norvegicus [7]) of 113.8%, a Control (Rattus norvegicus [8]) of 118.5% and a Control (Rattus norvegicus [9]) of 120.8%. For the same compound, the Control (Rattus norvegicus [10]) was 88.8%, the Control (Rattus norvegicus [11]) was 119% and the Control (Rattus norvegicus [12]) was 111.5%. The Control (Rattus norvegicus [13]) was 108.1%, the Control (Rattus norvegicus [14]) was 180.9% and the Control (Rattus norvegicus [15]) was 121.9%. For the same compound, the Control (Rattus norvegicus [16]) was 103%, the Control (Rattus norvegicus [17]) was 127.8% and the Control (Rattus norvegicus [18]) was 110.8%. For the same compound, the Control (Rattus norvegicus [19]) was 116%, the Control (Rattus norvegicus [20]) was 104.2% and the Control (Rattus norvegicus [21]) was 224.8%. It also gave a Control (Rattus norvegicus [22]) of 100.8%, a Control (Rattus norvegicus [23]) of 164.2% and a Control (Rattus norvegicus [24]) of 129.3%. For the same compound, the Control (Rattus norvegicus [25]) was 106.9%, the Control (Rattus norvegicus [26]) was 106.2% and the Control (Rattus norvegicus [27]) was 114%. For the same compound, the Control (Rattus norvegicus [28]) was 119.6%, the Control (Rattus norvegicus [29]) was 105.9% and the Control (Rattus norvegicus [30]) was 93.5%.

O=C(N(c1ccccc1)c1ccccc1)N(c1ccncc1)c1ccc(Cl)cc1 was tested, and the “AcCh release (% of control)” value (Rattus norvegicus [1]) was 159.2% and the Control (Rattus norvegicus [2]) was 231.4%.

In the case of O=C(N(c1ccccc1)c1ccccc1)N(c1ccncc1)c1cccc(Cl)c1, the “AcCh release (% of control)” value (Rattus norvegicus [1]) is reported as 103.4% and the Control (Rattus norvegicus [2]) is reported as 9.8%.

For O=C(Nc1ccccc1)Nc1ccccc1 [DIPHENYLUREA], the “AcCh release (% of control)” value (Rattus norvegicus [1]) was 89%, the Control (Rattus norvegicus [3]) was 125.8% and the Control (Rattus norvegicus [2]) was 138.6%. The Control (Rattus norvegicus [4]) was 98.8%, the Control (Rattus norvegicus [5]) was 101.9% and the Control (Rattus norvegicus [6]) was 97.1%.

In the case of Cc1ccc(N(C(=O)N(c2ccccc2)c2ccccc2)c2ccncc2)cc1, the “AcCh release (% of control)” value (Rattus norvegicus [1]) is reported as 186.4%, the Control (Rattus norvegicus [2]) is reported as 229% and the minimal effective dose (Mus musculus) is reported as greater than 32 mg/kg.

For O=C(Nc1ccccc1)N(c1ccccc1)c1ccccc1, the “AcCh release (% of control)” value (Rattus norvegicus [1]) was 78%, the Control (Rattus norvegicus [3]) was 195.7% and the Control (Rattus norvegicus [2]) was 151.3%. For the same compound, the Control (Rattus norvegicus [4]) was 224%, the Control (Rattus norvegicus [5]) was 100.3% and the Control (Rattus norvegicus [6]) was 259.5%.

In the case of O=C(N(c1ccccc1)c1ccncc1)N(c1ccc(F)cc1)c1ccc(F)cc1, the “AcCh release (% of control)” value (Rattus norvegicus [1]) is reported as 115.6% and the Control (Rattus norvegicus [2]) is reported as 48.9%.

For O=C(N(c1ccccc1)c1ccccc1)N(c1ccccc1)c1ccccc1, the “AcCh release (% of control)” value (Rattus norvegicus [1]) was 137.8%, the Control (Rattus norvegicus [3]) was 209.3% and the Control (Rattus norvegicus [2]) was 420.6%. It also gave a Control (Rattus norvegicus [4]) of 303.7%, a Control (Rattus norvegicus [5]) of 144.1% and a Control (Rattus norvegicus [6]) of 402.4%.

NC(=O)Nc1ccccc1 [PHENYLUREA] was tested, and the “AcCh release (% of control)” value (Rattus norvegicus [1]) was 94.1%, the Control (Rattus norvegicus [3]) was 116.4% and the Control (Rattus norvegicus [2]) was 107.9%. For the same compound, the Control (Rattus norvegicus [4]) was 99.8%, the Control (Rattus norvegicus [5]) was 105.8% and the Control (Rattus norvegicus [6]) was 99.3%.

For Nc1ccncc1 [DALFAMPRIDINE], the Control (Rattus norvegicus [7]) was 102.4%, the Control (Rattus norvegicus [9]) was 118% and the Control (Rattus norvegicus [10]) was 94%. It also gave a Control (Rattus norvegicus [12]) of 105.5%, a Control (Rattus norvegicus [13]) of 104% and a Control (Rattus norvegicus [15]) of 97.3%. The Control (Rattus norvegicus [16]) was 99.9%, the Control (Rattus norvegicus [17]) was 128.1% and the Control (Rattus norvegicus [18]) was 96.3%. For the same compound, the Control (Rattus norvegicus [19]) was 112.2%, the Control (Rattus norvegicus [20]) was 96.2% and the Control (Rattus norvegicus [21]) was 170.9%. It also gave a Control (Rattus norvegicus [22]) of 96.5%, a Control (Rattus norvegicus [23]) of 131.5% and a Control (Rattus norvegicus [24]) of 107.6%. For the same compound, the Control (Rattus norvegicus [25]) was 105%, the Control (Rattus norvegicus [26]) was 112.7% and the Control (Rattus norvegicus [27]) was 116.8%. For the same compound, the Control (Rattus norvegicus [29]) was 131.6% and the Control (Rattus norvegicus [30]) was 96.7%.

NC(=O)N(c1ccccc1)c1ccccc1 was tested, and the “AcCh release (% of control)” value (Rattus norvegicus [1]) was 92.2%, the Control (Rattus norvegicus [3]) was 111.4% and the Control (Rattus norvegicus [2]) was 128.7%. It also gave a Control (Rattus norvegicus [4]) of 98.9%, a Control (Rattus norvegicus [5]) of 105.1% and a Control (Rattus norvegicus [6]) of 105.9%.

Source: ChEMBL document CHEMBL1126446, “Acetylcholine releasing agents as cognition activators. Chemistry and pharmacology of a series of ureas” (1992)
